ChEMBL document CHEMBL3217528, “Bicyclic imidazole-4-one derivatives: a new class of antagonists for the orphan G protein-coupled receptors GPR18 and GPR55” (Medchemcomm, 2014)
pEC50, pIC50, pKi: −log10 of the molar value. Active and inactive are the calls of the source. The calls are words filed in the database; no cut-off is given here.

Tests used:
[1] = target: T1, Cannabinoid receptor 1 (Homo sapiens, UniProt P21554); assay: Agonist activity at human recombinant CB1 receptor expressed in CHO-K1 cell membranes assessed effect on forskolin-induced cAMP accumulation at 10 uM; format: functional, cell-based
[2] = target: T2, G-protein coupled receptor 55 (Homo sapiens, UniProt Q9Y2T6); assay: Agonist activity at human GPR55 expressed in CHO cells assessed as induction of LPI-induced beta-arrestin recruitment by beta-galactosidase enzyme fragment complementation method; format: cell-based
[3] = target: T3, Cannabinoid receptor 2 (Homo sapiens, UniProt P34972); assay: Agonist activity at human recombinant CB2 receptor expressed in CHO-K1 cell membranes assessed effect on forskolin-induced cAMP accumulation at 10 uM; format: functional, cell-based
[4] = target: T4, N-arachidonyl glycine receptor (Homo sapiens, UniProt Q14330); assay: Agonist activity at human GPR18 expressed in CHO cells assessed as induction of beta-arrestin recruitment by beta-galactosidase enzyme fragment complementation method; format: cell-based
T4 sequence (Q14330 whole entry): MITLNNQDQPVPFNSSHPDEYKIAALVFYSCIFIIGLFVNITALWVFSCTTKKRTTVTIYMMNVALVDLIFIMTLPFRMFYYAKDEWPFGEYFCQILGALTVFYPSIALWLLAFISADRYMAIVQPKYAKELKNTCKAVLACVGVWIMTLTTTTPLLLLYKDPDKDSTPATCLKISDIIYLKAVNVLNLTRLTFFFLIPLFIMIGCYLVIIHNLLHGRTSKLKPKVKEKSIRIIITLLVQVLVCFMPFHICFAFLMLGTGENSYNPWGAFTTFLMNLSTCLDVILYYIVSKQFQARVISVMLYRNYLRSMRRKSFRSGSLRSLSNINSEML

[5] = target: T2, G-protein coupled receptor 55; assay: Antagonist activity against human GPR55 expressed in CHO cells assessed as reduction in LPI-induced beta-arrestin recruitment by beta-galactosidase enzyme fragment complementation method; format: cell-based
[6] = target: T3, Cannabinoid receptor 2; assay: Displacement of [3H]CP55,940 from human recombinant CB2 receptor expressed in HEK293 cells; format: cell-based
[7] = Displacement of [3H]diazepam from GABAA receptor in rat brain cortical membranes; format: cell membranes
[8] = target: T2, G-protein coupled receptor 55; assay: Agonist activity at human GPR55 expressed in CHO cells assessed as induction of LPI-induced beta-arrestin recruitment by beta-galactosidase enzyme fragment complementation method relative to LPI; format: cell-based; set-up: concentration or dose not given beside the values
[9] = target: T5, N-arachidonyl glycine receptor (Homo sapiens) (UniProt Q14330); assay: Agonist activity at human GPR18 expressed in CHO cells assessed as induction of beta-arrestin recruitment by beta-galactosidase enzyme fragment complementation method relative to delta9-THC; format: cell-based; set-up: concentration or dose not given beside the values
T5 sequence (whole entry): T4 sequence (Q14330 whole entry)

[10] = target: Cannabinoid receptor 1 (Rattus norvegicus) (UniProt P20272); assay: Displacement of [3H]CP55,940 from CB1 receptor in rat brain cortical membranes at 10 uM; format: cell membranes
[11] = target: T4, N-arachidonyl glycine receptor; assay: Antagonist activity against human GPR18 expressed in CHO cells assessed as reduction in delta9-THC-induced beta-arrestin recruitment by beta-galactosidase enzyme fragment complementation method; format: cell-based
[12] = target: T5, N-arachidonyl glycine receptor (Homo sapiens); assay: Antagonist activity against human GPR18 expressed in CHO cells assessed as reduction in delta9-THC-induced beta-arrestin recruitment at 10 uM by beta-galactosidase enzyme fragment complementation method; format: cell-based
[13] = target: T1, Cannabinoid receptor 1; assay: Displacement of [3H]CP55,940 from human recombinant CB1 receptor expressed in CHO-K1 cells; format: cell-based
[14] = target: T2, G-protein coupled receptor 55; assay: Antagonist activity against human GPR55 expressed in CHO cells assessed as reduction in LPI-induced beta-arrestin recruitment at 10 uM by beta-galactosidase enzyme fragment complementation method; format: cell-based
[15] = target: T3, Cannabinoid receptor 2; assay: Displacement of [3H]CP55,940 from human recombinant CB2 receptor expressed in HEK293 cells at 10 uM; format: cell-based
[16] = species: Rattus norvegicus; assay: Displacement of [3H]diazepam from GABAA receptor in rat brain cortical membranes at 10 uM; format: cell membranes
[17] = target: Cannabinoid receptor 1 (Rattus norvegicus, UniProt P20272); assay: Displacement of [3H]CP55,940 from CB1 receptor in rat brain cortical membranes; format: cell membranes
[18] = target: T1, Cannabinoid receptor 1; assay: Displacement of [3H]CP55,940 from human recombinant CB1 receptor expressed in CHO-K1 cells at 10 uM; format: cell-based
[19] = target: T6, G-protein coupled receptor 35 (Homo sapiens, UniProt Q9HC97); assay: Antagonist activity at human GPR35 assessed as reduction of zaprinast-induced beta-arrestin recruitment by beta-galactosidase enzyme fragment complementation method
[20] = target: T6, G-protein coupled receptor 35; assay: Antagonist activity at human GPR35 assessed as reduction of zaprinast-induced beta-arrestin recruitment by beta-galactosidase enzyme fragment complementation method relative to untreated control; set-up: concentration or dose not given beside the values; conditions: concentration not given here
[21] = target: T2, G-protein coupled receptor 55; assay: Inverse agonist activity against human GPR55 expressed in CHO cells assessed as reduction in LPI-induced beta-arrestin recruitment at 10 uM by beta-galactosidase enzyme fragment complementation method; format: cell-based
[22] = target: T6, G-protein coupled receptor 35; assay: Agonist activity at human GPR35 assessed as induction of beta-arrestin recruitment by beta-galactosidase enzyme fragment complementation method
[23] = target: T6, G-protein coupled receptor 35; assay: Agonist activity at human GPR35 assessed as induction of beta-arrestin recruitment by beta-galactosidase enzyme fragment complementation method relative to zaprinast; set-up: concentration or dose not given beside the values
[24] = target: T2, G-protein coupled receptor 55; assay: Allosteric antagonist activity against human GPR55 expressed in CHO cells assessed as induction of rightward shift of concentration response curve of LPI-induced beta-arrestin recruitment at 10 uM by beta-galactosidase enzyme fragment complementation method; format: cell-based
[25] = target: T1, Cannabinoid receptor 1; assay: Intrinsic activity at human recombinant CB1 receptor expressed in HEK293 cell membranes assessed as stimulation of [35S]GTPgammaS binding at 10 uM by liquid scintillation counting method relative to CP55,940; format: functional
[26] = target: Cannabinoid receptor 1 (Rattus norvegicus) (UniProt P20272); assay: Intrinsic activity at CB1 receptor in rat brain cortical membranes assessed as stimulation of [35S]GTPgammaS binding at 10 uM by liquid scintillation counting method relative to CP55,940; format: functional, cell membranes
[27] = target: T3, Cannabinoid receptor 2; assay: Intrinsic activity at human recombinant CB2 receptor expressed in HEK293 cell membranes assessed as stimulation of [35S]GTPgammaS binding at 10 uM by liquid scintillation counting method relative to CP55,940; format: functional
[28] = target: T2, G-protein coupled receptor 55; assay: Inverse agonist activity against human GPR55 expressed in CHO cells assessed as reduction in LPI-induced beta-arrestin recruitment at 30 uM by beta-galactosidase enzyme fragment complementation method; format: cell-based
[29] = target: T2, G-protein coupled receptor 55; assay: Agonist activity at human GPR55 expressed in HEK293 cells assessed as increase in oscillation Ca2+ transients by fura-2 dye based fluorescence analysis; format: functional, cell-based
[30] = target: T4, N-arachidonyl glycine receptor; assay: Agonist activity at human GPR18 expressed in […] cells by MAP kinase assay; format: cell-based

Sequence of Cannabinoid receptor 1 (Rattus norvegicus, UniProt P20272) (P20272 whole entry): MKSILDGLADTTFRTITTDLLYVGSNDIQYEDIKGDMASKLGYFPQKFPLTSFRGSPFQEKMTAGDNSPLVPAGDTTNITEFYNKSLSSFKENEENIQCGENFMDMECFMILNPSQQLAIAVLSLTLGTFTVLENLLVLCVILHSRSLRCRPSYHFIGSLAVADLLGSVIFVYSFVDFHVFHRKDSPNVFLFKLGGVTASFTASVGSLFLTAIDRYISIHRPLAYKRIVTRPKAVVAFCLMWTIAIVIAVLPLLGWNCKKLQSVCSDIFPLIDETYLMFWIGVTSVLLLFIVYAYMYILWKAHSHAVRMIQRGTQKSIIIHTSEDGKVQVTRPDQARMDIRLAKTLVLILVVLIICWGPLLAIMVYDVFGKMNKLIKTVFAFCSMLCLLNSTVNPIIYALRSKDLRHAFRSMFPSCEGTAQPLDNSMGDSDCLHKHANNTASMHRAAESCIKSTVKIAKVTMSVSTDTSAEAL
Sequence of Cannabinoid receptor 1 (Rattus norvegicus) (P20272 whole entry, the tested form may be a part): as the sequence (P20272 whole entry) above
T3 sequence (P34972 whole entry, the tested form may be a part): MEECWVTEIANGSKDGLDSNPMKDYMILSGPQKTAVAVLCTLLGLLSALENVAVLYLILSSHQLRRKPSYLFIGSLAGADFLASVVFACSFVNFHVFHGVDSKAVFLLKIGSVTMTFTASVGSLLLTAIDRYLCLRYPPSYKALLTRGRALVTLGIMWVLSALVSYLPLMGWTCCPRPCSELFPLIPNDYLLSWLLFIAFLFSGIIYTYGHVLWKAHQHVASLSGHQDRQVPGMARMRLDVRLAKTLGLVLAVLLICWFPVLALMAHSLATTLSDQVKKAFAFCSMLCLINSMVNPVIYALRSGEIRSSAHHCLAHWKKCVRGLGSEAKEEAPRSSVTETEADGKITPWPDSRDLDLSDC
T6 sequence (Q9HC97 whole entry, the tested form may be a part): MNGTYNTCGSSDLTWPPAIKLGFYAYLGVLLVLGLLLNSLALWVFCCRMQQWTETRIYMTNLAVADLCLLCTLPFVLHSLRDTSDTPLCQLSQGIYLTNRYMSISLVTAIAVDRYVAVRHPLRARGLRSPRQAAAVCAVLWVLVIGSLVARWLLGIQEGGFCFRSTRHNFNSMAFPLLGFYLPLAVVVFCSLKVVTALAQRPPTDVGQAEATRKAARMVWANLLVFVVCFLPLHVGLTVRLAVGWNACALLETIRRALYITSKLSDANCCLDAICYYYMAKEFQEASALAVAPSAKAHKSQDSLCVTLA
T2 sequence (Q9Y2T6 whole entry, the tested form may be a part): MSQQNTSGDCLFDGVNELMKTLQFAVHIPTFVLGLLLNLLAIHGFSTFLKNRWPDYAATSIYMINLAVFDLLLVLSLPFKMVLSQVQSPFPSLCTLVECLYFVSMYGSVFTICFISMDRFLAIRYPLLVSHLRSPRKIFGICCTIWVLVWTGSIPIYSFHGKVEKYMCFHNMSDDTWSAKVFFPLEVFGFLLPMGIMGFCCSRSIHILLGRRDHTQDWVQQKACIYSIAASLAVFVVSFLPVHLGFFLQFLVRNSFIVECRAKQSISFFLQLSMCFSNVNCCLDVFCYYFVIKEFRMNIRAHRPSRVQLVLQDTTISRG
T1 sequence (P21554 whole entry, the tested form may be a part): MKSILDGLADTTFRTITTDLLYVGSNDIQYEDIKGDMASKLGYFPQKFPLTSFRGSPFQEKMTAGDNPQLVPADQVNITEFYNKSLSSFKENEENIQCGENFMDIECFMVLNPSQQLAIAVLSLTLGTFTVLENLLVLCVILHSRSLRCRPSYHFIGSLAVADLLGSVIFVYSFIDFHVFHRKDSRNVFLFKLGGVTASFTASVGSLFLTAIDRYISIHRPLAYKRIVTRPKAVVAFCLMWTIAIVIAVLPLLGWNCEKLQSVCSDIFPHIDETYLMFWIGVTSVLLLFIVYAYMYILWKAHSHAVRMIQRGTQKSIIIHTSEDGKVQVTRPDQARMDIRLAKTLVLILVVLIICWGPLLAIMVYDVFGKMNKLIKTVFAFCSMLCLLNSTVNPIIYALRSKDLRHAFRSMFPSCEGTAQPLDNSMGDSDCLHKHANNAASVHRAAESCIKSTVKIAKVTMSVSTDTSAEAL

Compound | pEC50 [2] | pIC50 [5] | pKi [6] | pKi [7] | Activity [8] [%] | Activity [9] [%] | pIC50 [11] | inhibition [12] [%] | pKi [13] | inhibition [15] [%] | pKi [17] | inhibition [18] [%] | Allosteric antagonist activity [24] | further results
CCCCCCC(C)(C)c1ccc([C@@H]2C[C@H](O)CC[C@H]2CCCO)c(O)c1 [CP-55940] | 5.79 | – | – | – | – | – | – | – | – | – | – | – | – | Activity [1]: Active; Activity [3]: Active; pEC50 [4]: 5.22
O=C1/C(=C/c2cccc(Cl)c2)N=C2SCCCN12 | – | ≤ 5.00 | < 5.00 | 5.00 | 9 | 0 | < 5.00 | 14 | < 5.00 | 2 | < 5.00 | 30 | – | inhibition [10]: 6%; inhibition [14]: 42%; inhibition [16]: 57%
O=C1/C(=C/c2cccc(F)c2F)N=C2SCCCN12 | – | 5.50 | < 5.00 | < 5.00 | 0 | 4 | < 5.00 | 3 | < 5.00 | 0 | – | 7 | Active | pIC50 [19]: < 5.00; inhibition [20]: 17%; inhibition [21]: Active; pEC50 [22]: < 5.00; Activity [23]: -4%; inhibition [16]: 24%
CCCCC/C=C\C/C=C\C/C=C\C/C=C\CCCC(=O)O[C@H](CO)COP(=O)(O)O[C@@H]1[C@@H](O)[C@H](O)[C@@H](O)[C@H](O)[C@@H]1O | 6.00 | – | < 5.00 | – | – | – | < 5.00 | 15 | < 5.00 | 0 | – | 0 | – | –
O=C1/C(=C/c2cccc(OCc3ccc(Cl)cc3)c2)N=C2SCCCCN12 | 4.97 | – | 5.38 | < 5.00 | 70 | 0 | < 5.00 | 31 | 6.60 | – | 6.09 | – | – | pIC50 [19]: < 5.00; inhibition [20]: 1%; pEC50 [22]: < 5.00; Intrinsic activity [25]: -40%; Activity [23]: 6%; Intrinsic activity [26]: -15%; Activity [1]: inactive; Intrinsic activity [27]: -59%
O=C1/C(=C/c2ccc(F)cc2F)N=C2SCCCN12 | – | 5.46 | < 5.00 | < 5.00 | 0 | 11 | < 5.00 | 6 | < 5.00 | 0 | – | 13 | Active | inhibition [28]: Active; inhibition [16]: 34%
Cc1c(C(=O)NN2CCCCC2)nn(-c2ccc(Cl)cc2Cl)c1-c1ccc(I)cc1 | – | – | – | – | – | – | – | – | – | – | – | – | – | pEC50 [29]: 6.20
Cc1c(C(=O)NN2CCOCC2)nn(-c2ccc(Cl)cc2Cl)c1-c1ccc(I)cc1 | – | – | – | – | – | – | – | – | – | – | – | – | – | Intrinsic activity [25]: -80%; Intrinsic activity [26]: -42%; Activity [1]: inactive; Activity [3]: inactive; pEC50 [29]: 4.87
O=C1/C(=C/c2ccccc2Cl)N=C2SCCCN12 | – | 5.29 | < 5.00 | 5.38 | 27 | 20 | < 5.00 | 6 | < 5.00 | 21 | < 5.00 | 0 | Active | pIC50 [19]: ≤ 5.00; inhibition [20]: 49%; pEC50 [22]: < 5.00; inhibition [10]: 5%; Activity [23]: -22%
O=C1/C(=C/c2cccc(Cl)c2Cl)N=C2SCCCN12 | – | 5.16 | < 5.00 | – | 3 | 17 | < 5.00 | 0 | < 5.00 | 40 | < 5.00 | 12 | Active | inhibition [10]: 6%
Cc1c(C(=O)NN2CCCCC2)nn(-c2ccc(Cl)cc2Cl)c1-c1ccc(Cl)cc1 [RIMONABANT] | – | – | – | – | – | – | – | – | – | – | – | – | – | pEC50 [4]: 5.00
CCCCCc1cc(O)c2c(c1)OC(C)(C)[C@@H]1CCC(C)=C[C@@H]21 [DRONABINOL] | 4.85 | – | – | – | – | – | – | – | – | – | – | – | – | pEC50 [30]: 6.02
